Test results reported in US12421254B2, “KRAS modulators and uses thereof” (Quanta Therapeutics, Inc., priority 2023, dated 2025).
Like-named read-outs stand apart in the source and are kept apart here.

Experiments:
[1] = biological target: GST-tagged KRAS-G12D (2-169) (Homo sapiens, UniProt P01116, G12D); experiment: Nucleotide exchange assay (NEA), SOS-mediated, HTRF, KRAS G12D; type: biochemical; settings: IC50 extracted at 30 min, 20 nM SOScat
Procedure, shortened: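 Compound preincubated 1 h at RT with 0.25 nM GST-KRAS-G12D (2-169) and anti-GST Tb donor, then 20 nM SOS1cat (564-1049) and 150 nM GTP-DY-647P1 added; pH 7.3 HEPES buffer with MgCl2 and DTT. HTRF monitored at RT; % inhibition versus DMSO and no-SOS blank, 4-parameter IC50 taken at 30 min.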

[2] = biological target: GST-tagged KRAS-G12V (2-169) (Homo sapiens, UniProt P01116, G12V); experiment: Nucleotide exchange assay (NEA), SOS-mediated, HTRF, KRAS G12V; type: biochemical; settings: Table 4; IC50 extracted at 90 min; 80 nM SOS
Chain of GST-tagged KRAS-G12V (2-169) (P01116 2-169 isoform P01116-2 G12V): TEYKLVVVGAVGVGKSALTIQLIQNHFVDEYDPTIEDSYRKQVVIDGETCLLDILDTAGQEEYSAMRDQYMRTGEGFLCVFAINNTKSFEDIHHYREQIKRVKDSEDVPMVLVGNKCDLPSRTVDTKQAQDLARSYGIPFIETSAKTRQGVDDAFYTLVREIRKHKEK
Procedure, shortened: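 GST-KRAS-G12V (2-169), 0.25 nM, pre-incubated 1 h at RT with compound, then SOS1cat (564-1049) 80 nM and GTP-DY-647P1 150 nM added in HEPES pH 7.3 buffer with MgCl2 and DTT. HTRF via anti-GST Tb cryptate read over 90 min; IC50 from 4-parameter fit at 90 min, blanked to no-SOS reactions.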

KRAS G12D/RAF1 = biological target: T1, KRAS G12D/RAF1 (Homo sapiens, UniProt P01116, G12D); experiment: Protein-protein interaction (PPI) HTRF assay KRAS G12D/RAF1; type: binding; settings: Table 2
T1 construct: KRAS (1-169) proteins were expressed in BL21 (DE3)-CodonPlus E. coli; His6-MBP (N, cleaved yes)
T1 sequence (P01116 with tags, fused parts or gaps isoform P01116-2 G12D): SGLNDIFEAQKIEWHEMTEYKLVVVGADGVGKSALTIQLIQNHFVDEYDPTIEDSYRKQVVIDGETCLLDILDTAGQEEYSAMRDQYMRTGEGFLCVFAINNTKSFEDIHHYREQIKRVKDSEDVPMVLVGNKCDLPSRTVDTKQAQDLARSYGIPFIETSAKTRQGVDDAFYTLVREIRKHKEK
Experimental: (§1) When RAS proteins are in the active GTP-bound conformation, they bind the effector protein RAF1 at the N-terminus Ras-binding domain (RBD, residues 52-131) (Tran, et al., 2021). Homogenous time resolved fluorescence (HTRF) was used to monitor the interaction between wt or mutant KRAS and RAF1 or wt NRAS and RAF1. Compounds were assayed in the presence of KRAS G12D/V and RAF1 versus wt KRAS to assess activity against mutant and w.t. KRAS. Similarly, compounds were then assayed in the presence of w.t. NRAS and RAF1 to assess RAS isoform selectivity. In all assay formats, His-tagged RAF1 protein was incubated with the HTRF donor, anti-6His Tb Cryptate gold (Cisbio 61DB10RDF), and biotinylated RAS proteins were incubated with the HTRF acceptor, streptavidin-d2 (CisBio 610SADLA). The intensity of the fluorescence signal emitted is proportional to binding between the two proteins. The donor solution was prepared by mixing 16 nM His-tagged RAF1 in protein dilution buffer with 1:100 anti-6His Tb cryptate in PPI-Terbium detection buffer. 16 nM biotinylated RAS protein was diluted into protein dilution buffer (50 mM Tris-HCl pH 7.5, 150 mM NaCl, 0.1 mM MgCl2, 1 mM TCEP, 0.005% Tween20) and mixed with 1:2000 Streptavidin-d2 diluted in PPI-Terbium detection buffer (CisBio 61DB10RDF). 50× compound in DMSO was mixed with 16 nM KRAS-acceptor solution and incubated for 30 minutes at room temperature. After compound pre-incubation with KRAS, the RAF1 donor solution was added to the KRAS-acceptor solution and incubated for 1 hour at room temperature. The fluorescence signal emitted was monitored at 665 nm and 615 nm using an Envision multimode plate reader. The HTRF ratio (665/615) was calculated and normalized to 0% inhibition in the absence of compound and 100% inhibition in the presence of untagged RAF1 protein. PPI KRAS G12D/RAF1, KRAS G12V/RAF1, w.t. KRAS/RAF1 and NRAS/RAF1 IC50 (uM) values of selected compounds are depicted in Table 3 and Table 4 with compounds having a value <0.1 uM as ++++; ≥0.1 uM to 1 uM as +++; ≥1 uM to 10 uM as ++; ≥10 uM to 100 uM as +; and ≥100 uM as NA.

KRAS G12V/RAF1 = biological target: T2, KRAS G12V/RAF1 (Homo sapiens, UniProt P01116, G12V); experiment: Protein-protein interaction (PPI) HTRF assay KRAS G12V/RAF1; type: binding; settings: Table 3
T2 construct: KRAS (1-169) proteins were expressed in BL21 (DE3)-CodonPlus E. coli; His6-MBP (N, cleaved yes)
T2 sequence (P01116 with tags, fused parts or gaps isoform P01116-2 G12V): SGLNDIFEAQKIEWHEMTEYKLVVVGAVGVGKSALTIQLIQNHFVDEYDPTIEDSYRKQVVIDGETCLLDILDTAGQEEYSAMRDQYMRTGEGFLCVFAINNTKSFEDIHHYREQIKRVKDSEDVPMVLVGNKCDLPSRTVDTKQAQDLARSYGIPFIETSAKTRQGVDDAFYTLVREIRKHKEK
Experimental: as §1

w.t. KRAS/RAF1 = biological target: T3, w.t. KRAS/RAF1 (Homo sapiens, UniProt P01116); experiment: Protein-protein interaction (PPI) HTRF assay w.t. KRAS/RAF1; type: binding; settings: Table 3; wt KRAS/RAF1
T3 construct: KRAS (1-169) proteins were expressed in BL21 (DE3)-CodonPlus E. coli; His6-MBP (N, cleaved yes)
T3 sequence (P01116 with tags, fused parts or gaps isoform P01116-2): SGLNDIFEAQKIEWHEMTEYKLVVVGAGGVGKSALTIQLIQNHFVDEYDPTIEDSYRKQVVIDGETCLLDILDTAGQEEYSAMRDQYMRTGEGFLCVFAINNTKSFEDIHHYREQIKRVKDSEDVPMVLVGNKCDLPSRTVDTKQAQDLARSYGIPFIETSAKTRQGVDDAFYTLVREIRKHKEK
Experimental: as §1

phospho-ERK in AGS cells = experiment: pERK In Cell Western (ICW) assay (Method B), AGS; type: cell-based; settings: Homo sapiens, Table 2, 3 hours
Experimental: pERK ICW is a high throughput screening assay to evaluate the cellular potency of mutant KRAS small molecule inhibitors. KRAS mutant cell lines AGS, GP2D (KRAS-G12D) as well as SW620 (KRAS-G12V) were purchased from ATCC and maintained respectively in RPMI/DMEM/RPMI medium supplemented with 10% fetal bovine serum.
Cells grown in exponential phase were trypsinized, resuspended in fresh media, and viable cells were counted using a cell counter with Trypan Blue (BioRad TC20). Cells were seeded into 384-well plate (Greiner 781091) at density of 5,000 cells/well for AGS and 10,000 cells/well for GP2D/SW620 and allowed to grow overnight in a 37° C. CO2 incubator. The next day, compounds were dispensed into wells with a ½ log, 9-point serial dilution using a Tecan D300e dispenser and incubated for 3 hours in a 37° C. CO2 incubator. Cells were then fixed with paraformaldehyde (Electron Microscopy Sciences, 15710, 4% final concentration) for 30 min, permeabilized with wash buffer (1×PBS+0.1% Triton X-100) for 30 min and blocked with Odyssey blocking buffer (Li—COR 927-70001) for 1 hour, all at room temperature (RT). Phospho-ERK antibody (CST 4370L) was diluted 1:500 in Odyssey T20 (PBS) antibody diluent (Li—COR 927-75001) and incubated with cells overnight at 4° C. The next day, plates were washed 5× with wash buffer, incubated with IRDye 800 CW, Goat anti-Rabbit secondary antibody (Li—COR 926-32211, 1:800) and DRAQ5 (CST 4084L, 1:5,000) diluted in Odyssey T20 (PBS) antibody diluent for 1 hour, washed 5×, and imaged on an Odyssey CLx imaging system.
For data analysis, signal intensities from 800 (phosphor-ERK) and 700 (DRAQ5) channels were extracted, and phospho-ERK signals were normalized to DRAQ5 signals for each well and percent of blank control values were computed. Data were then imported into Graphpad Prism to compute half-maximal inhibitory concentrations (IC50) using a 4-parameter variable slope model. Z-factor for each plate was computed from signals derived from wells treated with either DMSO or 5 μM of control compound. AGS pERK ICW (Method B) IC50 (uM) values of selected compounds are depicted in Table 2 with compounds having a value ≥0.001 uM to 0.01 uM as ++++; ≥0.01 uM to 0.1 uM as +++; ≥0.1 uM to 1 uM as ++; ≥1 uM to 10 uM as + and ≥10 uM as NA.

[3] = tested on: phospho-ERK in GP2D (KRAS-G12D) cells; experiment: pERK In Cell Western (ICW) assay (Method B), GP2D; type: cell-based; settings: GP2d, 3 h, Table 4
Procedure, shortened: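 SW620 (KRAS-G12V), GP2D (KRAS-G12D) and AGS cells, seeded overnight, were exposed to compounds (½-log, 9-point) for 3 h at 37°C, then fixed and stained for phospho-ERK. Infrared imaging; pERK normalized to DRAQ5 DNA stain, expressed as percent of blank control, IC50 by 4-parameter fit.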

[4] = Table 2, read-out: NEA-G12D (uM) IC50
[5] = Table 4, read-out: NEA G12D IC50

Chain of GST-tagged KRAS-G12D (2-169) (P01116 2-169 isoform P01116-2 G12D): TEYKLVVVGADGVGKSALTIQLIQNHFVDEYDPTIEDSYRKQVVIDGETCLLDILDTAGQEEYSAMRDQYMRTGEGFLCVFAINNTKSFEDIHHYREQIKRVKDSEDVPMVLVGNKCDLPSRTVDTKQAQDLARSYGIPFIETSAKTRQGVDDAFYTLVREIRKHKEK

CN(CC1(C#N)CC1)c1nc(OC[C@@]23CCCN2C[C@H](F)C3)nc(N2CC3(CCc4sc(N)c(C#N)c43)C2)n1 [Compound 15, 2-amino-1′-[4-[(1-cyanocyclopropyl)methyl-methyl-amino]-6-[[(2R,8S)-2-fluoro-1,2,3,5,6,7-hexahydropyrrolizin-8-yl]methoxy]-1,3,5-triazin-2-yl]spiro[5,6-dihydrocyclopenta[b]thiophene-4,3′-azetidine]-3-carbonitrile]
IC50 [1, 4]: 0.1 to 1 µM | IC50 [1, 5]: 0.1 to 1 µM | IC50 [2]: 10 to 100 nM | IC50 (KRAS G12D/RAF1): 1 to 10 µM | IC50 (KRAS G12V/RAF1): 1 to 10 µM | IC50 (w.t. KRAS/RAF1): 1 to 10 µM

N#Cc1c(N)sc2c1C1(CC2)CN(c2nc(OC[C@@]34CCCN3C[C@H](F)C4)nc(N3CC[C@@H](O)[C@@H](O)C3)n2)C1 (racemic) [Compound 22, 2-amino-1′-[4-[rac-(3S,4R)-3,4-dihydroxy-1-piperidyl]-6-[[(2R,8S)-2-fluoro-1,2,3,5,6,7-hexahydropyrrolizin-8-yl]methoxy]-1,3,5-triazin-2-yl]spiro[5,6-dihydrocyclopenta[b]thiophene-4,3′-azetidine]-3-carbonitrile]
IC50 [1, 4]: 0.01 to 0.1 µM | IC50 [1, 5]: 0.01 to 0.1 µM | IC50 [2]: 10 to 100 nM | IC50 (KRAS G12D/RAF1): 1 to 10 µM | IC50 (KRAS G12V/RAF1): 10 to 100 µM | IC50 (w.t. KRAS/RAF1): 1 to 10 µM | IC50 (phospho-ERK in AGS cells): 1 to 10 µM | IC50 [3]: 1000 to 20000 nM

N#Cc1c(N)sc2c1C1(CC2)CN(c2nc(OCC3(C#N)CC3)nc(OC[C@@]34CCCN3C[C@H](F)C4)n2)C1 [Compound 16, 2-amino-1′-[4-[(1-cyanocyclopropyl)methoxy]-6-[[(2R,8S)-2-fluoro-1,2,3,5,6,7-hexahydropyrrolizin-8-yl]methoxy]-1,3,5-triazin-2-yl]spiro[5,6-dihydrocyclopenta[b]thiophene-4,3′-azetidine]-3-carbonitrile]
IC50 [1, 4]: 0.01 to 0.1 µM | IC50 [1, 5]: 0.01 to 0.1 µM | IC50 [2]: 10 to 100 nM | IC50 (KRAS G12D/RAF1): 1 to 10 µM | IC50 (KRAS G12V/RAF1): 1 to 10 µM | IC50 (w.t. KRAS/RAF1): 10 to 100 µM | IC50 (phospho-ERK in AGS cells): 1 to 10 µM | IC50 [3]: 1000 to 20000 nM

C[C@]1(O)CN(c2nc(OC[C@@]34CCCN3C[C@H](F)C4)nc(N3CC4(CCc5sc(N)c(C#N)c54)C3)n2)CC[C@H]1O [Compound 21, 2-amino-1′-[4-[(3S,4R)-3,4-dihydroxy-3-methyl-1-piperidyl]-6-[[(2R,8S)-2-fluoro-1,2,3,5,6,7-hexahydropyrrolizin-8-yl]methoxy]-1,3,5-triazin-2-yl]spiro[5,6-dihydrocyclopenta[b]thiophene-4,3′-azetidine]-3-carbonitrile]
IC50 [1, 4]: 0.01 to 0.1 µM | IC50 [1, 5]: 0.01 to 0.1 µM | IC50 [2]: 10 to 100 nM | IC50 (KRAS G12D/RAF1): 0.1 to 1 µM | IC50 (KRAS G12V/RAF1): 1 to 10 µM | IC50 (w.t. KRAS/RAF1): 0.1 to 1 µM | IC50 (phospho-ERK in AGS cells): 0.1 to 1 µM | IC50 [3]: 100 to 1000 nM

N#Cc1c(N)sc2c1C1(CC2)CN(c2nc(OC[C@@]34CCCN3C[C@H](F)C4)nc(N3CCCC(C#N)CC3)n2)C1 (stereo partly drawn) [Compound 8, 2-amino-1′-[4-(4-cyanoazepan-1-yl)-6-[[(2R,8S)-2-fluoro-1,2,3,5,6,7-hexahydropyrrolizin-8-yl]methoxy]-1,3,5-triazin-2-yl]spiro[5,6-dihydrocyclopenta[b]thiophene-4,3′-azetidine]-3-carbonitrile]
IC50 [1, 4]: 0.01 to 0.1 µM | IC50 (KRAS G12D/RAF1): 1 to 10 µM | IC50 (KRAS G12V/RAF1): 1 to 10 µM | IC50 (w.t. KRAS/RAF1): 1 to 10 µM

N#Cc1c(N)sc2c1C1(CC2)CN(c2nc(OC[C@@]34CCCN3C[C@H](F)C4)nc(N3CCC[C@@H](CO)C3)n2)C1 [Compound 20, 2-amino-1′-[4-[[(2R,8S)-2-fluoro-1,2,3,5,6,7-hexahydropyrrolizin-8-yl]methoxy]-6-[(3R)-3-(hydroxymethyl)-1-piperidyl]-1,3,5-triazin-2-yl]spiro[5,6-dihydrocyclopenta[b]thiophene-4,3′-azetidine]-3-carbonitrile]
IC50 [1, 4]: 0.01 to 0.1 µM | IC50 [1, 5]: 0.01 to 0.1 µM | IC50 [2]: 10 to 100 nM | IC50 (KRAS G12D/RAF1): 10 to 100 µM | IC50 (KRAS G12V/RAF1): 10 to 100 µM | IC50 (phospho-ERK in AGS cells): 1 to 10 µM | IC50 [3]: 1000 to 20000 nM
